Test results: patent publication US20260108547A1, “LEVERAGING L-FUCOSE-MEDIATED SIGNALING TO INDUCE MONOCYTE-DERIVED DENDRITIC CELL POLARIZATION” (H. LEE MOFFITT CANCER CENTER AND RESEARCH INSTITUTE, INC., priority 2022, published 2026)

How the values were obtained:
moDCs = test: moDC cytokine production, qPCR and immunoblot of signaling pathways; type: cell-based
Excerpt: To determine if the changes in DC polarization and CD209 expression were associated with differential signaling changes in moDCs we analyzed known suppressive and stimulatory pathways by (FIG. 25A) cytokine production and (FIG. 25B) qPCR. […] (C) To elucidate the mechanism by which L-fucose was repressing immunosuppression in moDCs we preformed immunoblot analysis of several key signaling pathways in moDC activation of cells treated +/−L-fucose and +/−maturation via LPS. Additionally, we identified transcription factors that may play a role in altering the signaling and cytokine profiles of moDC to further validate the changes in immunomodulatory activity we observe.

[1] = system: bone marrow-derived MCs (BMMCs); test: BMMC / T cell ex vivo co-culture (CTV proliferation, interferon-gamma release); type: cell-based
Excerpt: We next sought to see how the immunostimulatory capacity of these cells was altered after L-fucose treatment by culturing L-fucose modulated, either by decreased fucosylation via 2FF or increased fucosylation by L-fuc, MCs with immature T cells to asses (FIG. 22B) proliferation by loss of CTV staining and (FIG. 22C) T cell activation as evident by interferon-gamma release.

SM1 tumors = test: Volumetric tumor growth, SM1 melanoma in C57BL/6 mice; type: in vivo, mouse; conditions: SM1 model
Excerpt: All animals were housed at the Vincent A. Stabile Research building animal facility at H. Lee Moffitt Cancer Center & Research Institute, which is fully accredited by the Association for Assessment and Accreditation of Laboratory Animal Care International (AAALAC, #434), and are managed in accordance with the Guide for the Care and Use of Laboratory Animals (“The Guide”), the Animal Welfare Regulations Title 9 Code of Federal Regulations Subchapter A, “Animal Welfare”, Parts 1-3 (AWR), the Public Health Service Policy on Humane Care and Use of Laboratory Animals (PHS Policy), and by the USF Institutional Animal Care and Use Committee's Principles and Procedures of Animal Care and Use (IACUC Principles). The experiments and protocols detailed in this study received institutional approval by the Moffitt IACUC (RIS00001625). Four-to-six-week-old female C3H/HeN and male C57BL6 mice were purchased from Charles Rivers Laboratories for the indicated experiments. Four-to-six-week-old male NSG mice from the Lau laboratory breeding colony were used for the indicated experiments. Power calculations were used to determine mouse cohort sizes to detect significant changes in tumor sizes. […] Mouse tumor volumes were measured using length, width and depth divided by 2. […]

SW1 tumors [2] = test: Volumetric tumor growth, SW1 melanoma in C3H/HeN mice (incl. immunodepletion, FTY720, anti-PD1); type: in vivo, mouse; conditions: SW1 model
Excerpt: All animals were housed at the Vincent A. Stabile Research building animal facility at H. Lee Moffitt Cancer Center & Research Institute, which is fully accredited by the Association for Assessment and Accreditation of Laboratory Animal Care International (AAALAC, #434), and are managed in accordance with the Guide for the Care and Use of Laboratory Animals (“The Guide”), the Animal Welfare Regulations Title 9 Code of Federal Regulations Subchapter A, “Animal Welfare”, Parts 1-3 (AWR), the Public Health Service Policy on Humane Care and Use of Laboratory Animals (PHS Policy), and by the USF Institutional Animal Care and Use Committee's Principles and Procedures of Animal Care and Use (IACUC Principles). The experiments and protocols detailed in this study received institutional approval by the Moffitt IACUC (RIS00001625). Four-to-six-week-old female C3H/HeN and male C57BL6 mice were purchased from Charles Rivers Laboratories for the indicated experiments. Four-to-six-week-old male NSG mice from the Lau laboratory breeding colony were used for the indicated experiments. Power calculations were used to determine mouse cohort sizes to detect significant changes in tumor sizes. In general, 10 mice per indicated cohort to accommodate for incidental loss of mice due to issues beyond our control (e.g., incidental tumor ulceration that required exclusion from the study). Mouse tumor volumes were measured using length, width and depth divided by 2. At each experimental endpoint, mice were humanely euthanized using CO2 inhalation in accordance to the American Veterinary Medical Association guidelines.
For all mouse models, 1×10^6 melanoma cells were injected subcutaneously in the right hind flanks of each mouse. […] This dosage is within ranges for dietary supplementation with L-fucose and other similar dietary sugars (e.g., D-mannose) in other rodent studies. When the tumors reached −2 cm^3, the animals were sacrificed, and the tumors either processed for flow cytometric profiling or for histological analysis as indicated.
(§1) Control vs. mFuk±L-fucose models (FIG. 1 & FIG. 8): SW1 or SM1 mouse melanoma cells were injected into syngeneic C3H/HeN (or NSG) female or C57BL/6 male mice, respectively, as follows: parental SW1 cells for FIG. 1A; parental SM1 cells for FIG. 1E; SW1 cells stably expressing either empty vector (EV) or mouse fucose kinase (mFuk) for FIG. 1L; and parental SW1 cells for FIG. 1M.
as §1, with “L-fucose±FTY720” for “mFuk±L-fucose”, “2):” for “1 & FIG. 8):”, “respectively. Cells were injected” for “respectively,”, “1M. FTY720 was administered at 20 μg every 2 days starting on Day 12, just prior to the initiation of LF, until endpoint.” for “1M.”
Immunodepletion mouse models (FIG. 1 & FIG. 8): Three days prior to tumor engraftment, PBS (control) or ˜300 μg α-CD4 (20 mg/kg, for immunodepletion, GK1.5, Bioxcell (West Lebanon, NH)) or 0-CD8 (20 mg/kg, for immunodepletion, 2.43, Bioxcell (West Lebanon, NH)) was administered by intraperitoneal injection into the indicated cohorts of mice. Injections of immunodepletion antibody or PBS were continued every 3-4 days until endpoint. Syngeneic recipient C3H/HeN female or C57BL/6 male mice were injected with SW1 or SM1 cells, respectively. […]

SW1 tumors [3] = test: DC clustering by CD11c in SW1 tumors from mice treated +/- L-fucose; conditions: mouse, in vivo
[4] = L-fuc in combination with anti-PD1

C[C@H](O)[C@@H](O)[C@@H](O)[C@H](O)C=O [L-fucose]
immunosuppressive signature of DCs (moDCs; cytokine production, qPCR): decreased immunosuppressive signature
iNOS and p65 activation in moDC (moDCs; immunoblot, +/- LPS maturation): decreased iNOS and p65 activation
immunostimulatory capacity of treated dendritic cells (DCs) [1]: enhanced immunostimulatory capacity
tumor suppression, single agent (SM1 tumors): less tumor suppressive than anti-PD1 alone
tumor suppression in combination with anti-PD1 (SM1 tumors; [4]): augmented durable suppression
reduction of tumor growth (SW1 tumors [2]; CD4+T cell depletion): completely abrogated
efficacy of anti-PD1 when combined with oral L-fuc (SW1 tumors [2]; [4]): did not enhance efficacy of anti-PD1
reduced tumor growth (SW1 tumors [2]; control and CD8+ T cell-depleted mice): > 50%
reduced tumor growth (SW1 tumors [2]; oral L-fuc): ~50%
DC clustering by CD11c in SW1 tumors (SW1 tumors [3]): increased DC clustering
